In the supplement of paper PMC10307832:

Columns and labels:
Assay in all cases: relative viability (nuclei count vs DMSO), 5 days (fraction); higher = more cells survive
NCI-H2085 = test system: NCI-H2085
In short: (§1)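 Relative viability is defined as nuclei in treated wells over nuclei in vehicle wells. Duplicate plates were run and medians reported. Lung cancer cell lines in 1536-well plates were dosed by pin tool one day after seeding, with one drug or with a fixed anchor-drug dose plus five library-drug doses (not always all listed) in √10 steps, and nuclei were counted after 5 days.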

NCI-H358 = test system: NCI-H358
In short: as §1

SK-LU-1 = test system: SK-LU-1
In short: as §1

NCI-H460 = test system: NCI-H460
In short: as §1

NCI-H1792 = test system: NCI-H1792
In short: as §1

A-427 = test system: A-427
In short: as §1

NCI-H1915 = test system: NCI-H1915
In short: as §1

COR-L 105 = test system: COR-L 105
In short: as §1

NCI-H2170 = test system: NCI-H2170
In short: as §1

NCI-H1944 = test system: NCI-H1944
In short: as §1

EPLC-272H = test system: EPLC-272H
In short: as §1

`CC(=O)O[C@@]12CO[C@@H]1C[C@H](O)[C@@]1(C)C(=O)[C@H](O)C3=C(C)[C@@H](OC(=O)[C@H](O)[C@@H](NC(=O)OC(C)(C)C)c4ccccc4)C[C@@](O)([C@@H](OC(=O)c4ccccc4)[C@H]21)C3(C)C` [Docetaxel] + Cc1nc(NC(=O)N2CCC[C@H]2C(N)=O)sc1-c1ccnc(C(C)(C)C(F)(F)F)c1 [Alpelisib] (partner 2 µM) was tested, and the relative viability (NCI-H2085; first compound 0.006325 µM) was 0.609, the relative viability (NCI-H2085; first compound 0.02 µM) was 0.378 and the relative viability (NCI-H358; first compound 0.0002 µM) was 0.786. For the same molecule, the relative viability (NCI-H358; first compound 0.000632 µM) was 0.361, the relative viability (NCI-H358; first compound 0.002 µM) was 0.267 and the relative viability (NCI-H358; first compound 0.02 µM) was 0.111. For the same molecule, the relative viability (SK-LU-1; first compound 0.0002 µM) was 0.766, the relative viability (SK-LU-1; first compound 0.000632 µM) was 0.467 and the relative viability (SK-LU-1; first compound 0.002 µM) was 0.495. For the same molecule, the relative viability (SK-LU-1; first compound 0.006325 µM) was 0.26, the relative viability (SK-LU-1; first compound 0.02 µM) was 0.228 and the relative viability (NCI-H460; first compound 0.0002 µM) was 0.303. For the same molecule, the relative viability (NCI-H460; first compound 0.000632 µM) was 0.185, the relative viability (NCI-H460; first compound 0.002 µM) was 0.016 and the relative viability (NCI-H460; first compound 0.006325 µM) was 0.0118. For the same molecule, the relative viability (NCI-H460; first compound 0.02 µM) was 0.0069, the relative viability (NCI-H1792; first compound 0.0002 µM) was 0.728 and the relative viability (NCI-H1792; first compound 0.000632 µM) was 0.655. For the same molecule, the relative viability (NCI-H1792; first compound 0.002 µM) was 0.401, the relative viability (NCI-H1792; first compound 0.02 µM) was 0.0824 and the relative viability (A-427; first compound 0.0002 µM) was 1.02. For the same molecule, the relative viability (A-427; first compound 0.000632 µM) was 1.14, the relative viability (A-427; first compound 0.002 µM) was 0.974 and the relative viability (A-427; first compound 0.006325 µM) was 0.204. It also gave a relative viability (A-427; first compound 0.02 µM) of 0.164, a relative viability (NCI-H1915; first compound 0.0002 µM) of 1.02 and a relative viability (NCI-H1915; first compound 0.000632 µM) of 0.971. It also gave a relative viability (NCI-H1915; first compound 0.002 µM) of 0.52, a relative viability (NCI-H1915; first compound 0.006325 µM) of 0.183 and a relative viability (NCI-H1915; first compound 0.02 µM) of 0.135. The relative viability (COR-L 105; first compound 0.0002 µM) was 0.828, the relative viability (COR-L 105; first compound 0.000632 µM) was 0.952 and the relative viability (COR-L 105; first compound 0.002 µM) was 0.475. It also gave a relative viability (COR-L 105; first compound 0.006325 µM) of 0.522, a relative viability (COR-L 105; first compound 0.02 µM) of 0.306 and a relative viability (NCI-H2170; first compound 0.0002 µM) of 0.83. It also gave a relative viability (NCI-H2170; first compound 0.000632 µM) of 0.632, a relative viability (NCI-H2170; first compound 0.002 µM) of 0.451 and a relative viability (NCI-H2170; first compound 0.006325 µM) of 0.228. It also gave a relative viability (NCI-H2170; first compound 0.02 µM) of 0.175, a relative viability (NCI-H1944; first compound 0.0002 µM) of 0.751 and a relative viability (NCI-H1944; first compound 0.000632 µM) of 0.761. For the same molecule, the relative viability (NCI-H1944; first compound 0.002 µM) was 0.728, the relative viability (NCI-H1944; first compound 0.006325 µM) was 0.259 and the relative viability (NCI-H1944; first compound 0.02 µM) was 0.122. The relative viability (EPLC-272H; first compound 0.0002 µM) was 0.928, the relative viability (EPLC-272H; first compound 0.000632 µM) was 0.741 and the relative viability (EPLC-272H; first compound 0.002 µM) was 0.43. For the same molecule, the relative viability (EPLC-272H; first compound 0.006325 µM) was 0.147 and the relative viability (EPLC-272H; first compound 0.02 µM) was 0.106.
